In patent publication US20230321123A1, “INHIBITORS OF PSEUDOMONAS AERUGINOSA VIRULENCE FACTOR LasB” (Helmholtz-Zentrum Für Infektionsforschung GmbH, priority 2020, published 2023):

How the values were obtained:
CYP2C19 = CYP2C19 (Homo sapiens, UniProt P33261); assay: CYP inhibition CYP2C19; assay type: in vitro ADME
Text: (§1) As the compound of example 2 has shown an impressive activity in the in vitro LasB inhibition assay, high selectivity over a broad spectrum of human enzymes and no signs of cytotoxicity in vitro, it has been subjected to a more advanced safety screening (Table 9).

MMP-1 = molecular target: T1, MMP-1 (Homo sapiens, UniProt P03956); assay: Selectivity against human off-targets: MMP-1; assay type: biochemical; settings: read-out: Inhibition [%] MMP-1
T1 sequence (P03956 100-469): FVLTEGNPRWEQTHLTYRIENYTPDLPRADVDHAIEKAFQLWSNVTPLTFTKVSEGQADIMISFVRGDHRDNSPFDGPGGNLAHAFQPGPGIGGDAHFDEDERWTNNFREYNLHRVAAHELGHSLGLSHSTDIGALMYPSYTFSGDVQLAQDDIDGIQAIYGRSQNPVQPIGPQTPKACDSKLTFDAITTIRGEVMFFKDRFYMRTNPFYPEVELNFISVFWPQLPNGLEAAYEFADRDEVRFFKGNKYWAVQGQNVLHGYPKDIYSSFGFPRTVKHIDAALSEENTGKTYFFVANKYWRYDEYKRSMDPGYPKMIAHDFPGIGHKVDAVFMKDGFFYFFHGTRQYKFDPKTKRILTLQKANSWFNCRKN
Text: (§2) The inhibition of zinc-containing human enzymes is described frequently for LasB inhibitors and poses a serious difficulty in the development of selective compounds. Particularly, the inhibition of matrix metalloproteases (MMPs) should be avoided. To further investigate this issue, three derivatives (the compounds of examples 1, 5 and 8) have been tested for their selectivity against several human off-targets, including six MMPs, ADAM17 (TACE), HDAC-3 and HDAC-8 (Table 4). The selectivity of the compounds is particularly high for MMPs and HDACs, whereas the inhibition of ADAM17 was considerably stronger.

MMP-14 = MMP-14 (Homo sapiens, UniProt P50281); assay: Selectivity against human off-targets: MMP-14; assay type: biochemical; settings: read-out: Inhibition [%] MMP-14
Text: as §2

[1] = Pharmacokinetic (PK) studies in mice; assay type: in vivo; settings: 10 mg/kg
Experimental: Moreover, the compound of example 2 was subjected to pharmacokinetic (PK) studies in mice (Table 10). Injected intravenously (i.v.) at a dose of 10 mg/kg, it is detectable in blood for 2 h.

CYP2D6 = CYP2D6 (Homo sapiens, UniProt P10635); assay: CYP inhibition CYP2D6; assay type: in vitro ADME
Text: as §1

ADAM17 (TACE) = ADAM17 (TACE) (Homo sapiens, UniProt P78536); assay: Selectivity against human off-targets: ADAM17 (TACE); assay type: biochemical; settings: read-out: IC50 ADAM17 (TACE)
CYP1A = molecular target: T2, CYP1A (Homo sapiens, UniProt P05177); assay: CYP inhibition CYP1A; assay type: in vitro ADME
T2 sequence (P05177 2-516): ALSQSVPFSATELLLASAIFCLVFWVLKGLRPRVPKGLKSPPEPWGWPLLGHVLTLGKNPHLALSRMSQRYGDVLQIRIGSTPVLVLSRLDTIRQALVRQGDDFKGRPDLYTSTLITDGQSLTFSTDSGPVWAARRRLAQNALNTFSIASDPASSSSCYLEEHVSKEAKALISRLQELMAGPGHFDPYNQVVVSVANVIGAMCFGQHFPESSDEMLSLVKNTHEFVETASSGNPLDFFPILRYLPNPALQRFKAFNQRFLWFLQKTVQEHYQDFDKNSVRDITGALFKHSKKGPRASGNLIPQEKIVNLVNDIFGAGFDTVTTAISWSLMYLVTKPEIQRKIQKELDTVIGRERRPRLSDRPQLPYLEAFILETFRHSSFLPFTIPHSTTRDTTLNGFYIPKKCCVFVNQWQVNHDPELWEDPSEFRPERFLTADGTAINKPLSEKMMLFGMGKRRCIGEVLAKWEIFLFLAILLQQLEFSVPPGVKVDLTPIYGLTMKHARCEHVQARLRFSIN
Text: as §1

Cytotoxicity HepG2 = assay type: cell-based; settings: human; HepG2
Experimental: The compounds of examples 1 and 5 were not toxic against the cell lines HepG2, HEK293 and A549 (Table 5). Additionally, the inhibitory effect against P. aeruginosa PA14 was evaluated to exclude an antibacterial effect of the compounds of the present invention. This is important as it was the aim to target virulence and not viability of the bacteria. […]

MMP-8 = MMP-8 (Homo sapiens, UniProt P22894); assay: Selectivity against human off-targets: MMP-8; assay type: biochemical; settings: read-out: Inhibition [%] MMP-8
Text: as §2

hERG potassium channel = hERG potassium channel (Homo sapiens, UniProt Q12809); assay: hERG inhibition; assay type: biochemical
Text: as §1

MMP-7 = molecular target: T3, MMP-7 (Homo sapiens, UniProt P09237); assay: Selectivity against human off-targets: MMP-7; assay type: biochemical; settings: read-out: Inhibition [%] MMP-7
T3 sequence (P09237 95-267): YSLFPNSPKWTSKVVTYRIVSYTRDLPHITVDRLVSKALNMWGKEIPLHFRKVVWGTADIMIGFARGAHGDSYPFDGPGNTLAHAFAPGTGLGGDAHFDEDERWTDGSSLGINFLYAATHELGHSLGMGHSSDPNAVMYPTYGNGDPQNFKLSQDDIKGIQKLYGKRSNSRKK
Text: as §2

HDAC-3 = HDAC-3 (Homo sapiens, UniProt O15379); assay: Selectivity against human off-targets: HDAC-3; assay type: biochemical; settings: read-out: IC50 HDAC-3
Text: as §2

Sequence of hERG potassium channel (Q12809 whole entry): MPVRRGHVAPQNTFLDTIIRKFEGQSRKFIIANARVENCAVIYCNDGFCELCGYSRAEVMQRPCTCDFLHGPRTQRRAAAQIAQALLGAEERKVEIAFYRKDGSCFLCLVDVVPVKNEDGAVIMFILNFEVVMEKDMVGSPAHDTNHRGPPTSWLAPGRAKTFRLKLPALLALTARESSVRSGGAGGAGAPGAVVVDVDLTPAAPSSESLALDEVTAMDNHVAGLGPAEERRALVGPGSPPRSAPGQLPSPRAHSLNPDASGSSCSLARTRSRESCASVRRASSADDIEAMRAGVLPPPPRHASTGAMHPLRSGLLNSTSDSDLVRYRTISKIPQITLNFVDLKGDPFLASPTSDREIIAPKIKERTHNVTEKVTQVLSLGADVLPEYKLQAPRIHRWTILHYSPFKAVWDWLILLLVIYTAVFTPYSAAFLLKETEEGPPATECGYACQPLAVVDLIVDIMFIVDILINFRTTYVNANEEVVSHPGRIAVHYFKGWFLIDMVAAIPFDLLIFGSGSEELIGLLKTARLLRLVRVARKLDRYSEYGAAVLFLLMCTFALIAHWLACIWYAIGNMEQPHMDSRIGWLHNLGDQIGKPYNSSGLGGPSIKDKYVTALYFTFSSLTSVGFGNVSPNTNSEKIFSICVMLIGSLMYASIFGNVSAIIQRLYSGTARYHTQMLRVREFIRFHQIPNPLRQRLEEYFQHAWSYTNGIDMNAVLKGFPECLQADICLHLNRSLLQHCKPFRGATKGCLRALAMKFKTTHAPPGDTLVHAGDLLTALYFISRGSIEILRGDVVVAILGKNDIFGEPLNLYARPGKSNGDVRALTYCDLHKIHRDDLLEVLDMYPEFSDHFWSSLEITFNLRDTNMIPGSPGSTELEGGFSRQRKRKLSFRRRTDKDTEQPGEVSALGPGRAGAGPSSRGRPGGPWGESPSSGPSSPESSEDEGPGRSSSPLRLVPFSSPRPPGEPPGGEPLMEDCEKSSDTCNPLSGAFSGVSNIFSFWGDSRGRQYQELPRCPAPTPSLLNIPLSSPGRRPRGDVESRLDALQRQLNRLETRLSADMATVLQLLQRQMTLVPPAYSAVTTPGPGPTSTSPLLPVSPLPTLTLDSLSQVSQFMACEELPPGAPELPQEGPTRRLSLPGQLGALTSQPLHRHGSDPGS
Sequence of CYP2C19 (P33261 whole entry): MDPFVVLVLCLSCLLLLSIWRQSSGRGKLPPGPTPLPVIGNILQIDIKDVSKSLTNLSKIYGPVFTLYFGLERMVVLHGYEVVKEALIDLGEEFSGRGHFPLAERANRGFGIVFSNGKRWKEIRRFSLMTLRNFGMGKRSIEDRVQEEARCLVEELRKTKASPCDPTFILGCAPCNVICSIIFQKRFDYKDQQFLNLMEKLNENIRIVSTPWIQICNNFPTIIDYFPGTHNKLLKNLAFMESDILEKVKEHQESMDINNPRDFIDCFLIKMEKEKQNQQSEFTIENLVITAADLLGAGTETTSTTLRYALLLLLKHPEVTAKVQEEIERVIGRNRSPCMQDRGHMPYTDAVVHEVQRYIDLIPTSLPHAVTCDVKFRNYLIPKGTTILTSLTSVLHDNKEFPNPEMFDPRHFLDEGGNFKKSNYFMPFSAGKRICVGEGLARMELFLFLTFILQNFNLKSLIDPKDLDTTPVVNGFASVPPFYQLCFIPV
Sequence of MMP-8 (P22894 101-467): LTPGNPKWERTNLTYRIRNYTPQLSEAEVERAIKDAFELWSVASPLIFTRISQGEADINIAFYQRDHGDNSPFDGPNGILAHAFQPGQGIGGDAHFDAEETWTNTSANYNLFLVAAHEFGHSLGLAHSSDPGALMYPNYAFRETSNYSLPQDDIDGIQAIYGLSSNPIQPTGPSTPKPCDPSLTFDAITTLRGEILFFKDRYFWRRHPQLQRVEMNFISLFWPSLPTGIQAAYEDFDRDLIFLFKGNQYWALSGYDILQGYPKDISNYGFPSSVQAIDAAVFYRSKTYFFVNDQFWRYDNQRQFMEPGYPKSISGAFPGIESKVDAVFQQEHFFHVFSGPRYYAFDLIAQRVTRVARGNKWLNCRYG
Sequence of CYP2D6 (P10635 whole entry): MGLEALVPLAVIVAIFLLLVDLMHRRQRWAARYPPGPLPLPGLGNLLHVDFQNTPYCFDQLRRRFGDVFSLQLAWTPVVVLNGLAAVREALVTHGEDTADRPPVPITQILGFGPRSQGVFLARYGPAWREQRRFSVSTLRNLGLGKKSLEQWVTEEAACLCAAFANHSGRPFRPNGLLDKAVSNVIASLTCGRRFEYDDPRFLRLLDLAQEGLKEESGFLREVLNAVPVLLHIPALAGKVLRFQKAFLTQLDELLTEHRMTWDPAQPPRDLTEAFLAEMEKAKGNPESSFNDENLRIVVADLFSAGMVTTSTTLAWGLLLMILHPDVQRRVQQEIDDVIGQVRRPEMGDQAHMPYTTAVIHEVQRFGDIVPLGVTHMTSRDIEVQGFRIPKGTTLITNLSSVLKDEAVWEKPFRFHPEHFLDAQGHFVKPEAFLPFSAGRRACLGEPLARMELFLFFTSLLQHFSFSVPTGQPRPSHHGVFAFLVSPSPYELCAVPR
Sequence of HDAC-3 (O15379 whole entry): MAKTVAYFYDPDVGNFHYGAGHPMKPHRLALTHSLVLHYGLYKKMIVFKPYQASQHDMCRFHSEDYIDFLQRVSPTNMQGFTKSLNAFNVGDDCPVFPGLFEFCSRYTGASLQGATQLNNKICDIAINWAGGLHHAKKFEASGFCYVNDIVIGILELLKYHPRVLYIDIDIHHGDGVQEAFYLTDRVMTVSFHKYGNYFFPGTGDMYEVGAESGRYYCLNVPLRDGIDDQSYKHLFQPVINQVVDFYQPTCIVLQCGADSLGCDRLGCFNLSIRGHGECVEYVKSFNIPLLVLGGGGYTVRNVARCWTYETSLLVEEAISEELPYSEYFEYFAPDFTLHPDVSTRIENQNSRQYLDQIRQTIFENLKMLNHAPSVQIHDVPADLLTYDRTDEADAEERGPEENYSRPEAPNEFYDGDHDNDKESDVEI
Sequence of HDAC-3 (Q9Y618 395-489 partner limits assumed): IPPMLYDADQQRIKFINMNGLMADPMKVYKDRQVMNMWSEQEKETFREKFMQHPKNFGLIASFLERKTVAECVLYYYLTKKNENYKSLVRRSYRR
Sequence of ADAM17 (TACE) (P78536 215-824): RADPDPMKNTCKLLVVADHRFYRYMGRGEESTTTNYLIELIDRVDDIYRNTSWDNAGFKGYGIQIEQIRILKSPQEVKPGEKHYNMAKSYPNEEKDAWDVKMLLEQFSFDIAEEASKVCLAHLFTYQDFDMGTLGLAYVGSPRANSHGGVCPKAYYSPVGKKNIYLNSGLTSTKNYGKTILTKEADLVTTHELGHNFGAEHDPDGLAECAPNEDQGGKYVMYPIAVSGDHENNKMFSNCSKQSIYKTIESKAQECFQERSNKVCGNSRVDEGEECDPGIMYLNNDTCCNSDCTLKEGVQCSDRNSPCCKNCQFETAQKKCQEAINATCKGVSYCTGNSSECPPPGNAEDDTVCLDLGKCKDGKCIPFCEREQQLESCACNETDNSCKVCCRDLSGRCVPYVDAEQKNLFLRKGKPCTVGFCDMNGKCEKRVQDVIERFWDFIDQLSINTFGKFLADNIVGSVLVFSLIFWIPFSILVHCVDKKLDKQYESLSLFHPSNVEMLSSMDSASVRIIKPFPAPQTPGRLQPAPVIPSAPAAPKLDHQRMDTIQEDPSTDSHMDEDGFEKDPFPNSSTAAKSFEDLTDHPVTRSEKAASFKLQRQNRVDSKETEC

In the case of `Cc1ccc(NC(=O)C(S)CC(C)C)cc1` (stereo not drawn) [Example 2, 2-Mercapto-4-methyl-N-(p-tolyl)pentanamide], the IC50 (CYP2C19) is reported as 1 µM, the inhibition at 100 µM (MMP-1) is reported as less than 10% and the inhibition at 100 µM (MMP-14) is reported as less than 10%. For the same molecule, the CL/F ([1]; i.v.) was 505 ± 119 mL/min/kg, the V/F ([1]; i.v.) was 45.5 ± 2.8 L/kg and the “time detectable in blood” value ([1]; i.v.) was 2 h. It also gave an AUC(0-t) ([1]; mouse, blood, iv) of 241 ± 22 ng·h/mL, a Cmax ([1]; mouse, blood, iv) of 200 ng/mL and a half-life ([1]; mouse, blood, iv) of 50 min. The Tmax ([1]; mouse, blood, iv, first measuring point) was 15 min, the IC50 (CYP2D6) was 22.3 µM and the IC50 (ADAM17 (TACE)) was 4.5 ± 1.8 µM. For the same molecule, the IC50 (CYP1A) was greater than 25 µM, the IC50 (Cytotoxicity HepG2) was greater than 100 µM and the inhibition at 100 µM (MMP-8) was less than 10%. It also gave an IC50 (hERG potassium channel) greater than 10 µM, an inhibition at 100 µM (MMP-7) of less than 10% and an IC50 (HDAC-3) greater than 100 µM.
